For test [1], the target named is T1, human mPGES-1 (Homo sapiens, UniProt O14684).
T1 construct: made in house; host or cells: CHO-K1 cells, transient transfection; microsomal fraction
T1 sequence (O14684 1-152): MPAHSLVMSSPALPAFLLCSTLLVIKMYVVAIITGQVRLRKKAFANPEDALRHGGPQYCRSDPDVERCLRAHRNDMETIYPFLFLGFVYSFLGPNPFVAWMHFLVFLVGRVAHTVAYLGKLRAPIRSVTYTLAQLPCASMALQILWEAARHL
Kind of test: Microsomal prostaglandin E synthase assay. The class given is biochemical. To be noted: microsomes of CHO-K1 cells transfected with human mPGES-1; PGE2 by EIA; average of at least n=3; read-out: h-CHO (nM); potency expressed as IC50. How it is done:
Compounds are tested as inhibitors of prostaglandin E synthase activity in microsomal prostaglandin E synthases, whole cell and in vivo assays. These assays measure prostaglandin E2 (PGE2) synthesis using either Enzymatic Immunoassay (EIA) or mass spectrometry. Cells used for microsomal preparation are CHO-K1 cells transiently transfected with plasmids encoding the human mPGES-1 cDNA. Cells used for cell-based experiments are human A549 (which express human mPGES-1). Guinea pigs are used to test the activity of selected compounds in vivo. In all these assays, 100% activity is defined as the PGE2 production in vehicle-treated samples.
Prostaglandin E synthase microsomal fractions are prepared from CHO-K1 cells transiently transfected with plasmid encoding the human mPGES-1 cDNA. […] The enzyme reactions are performed in 200 mM KPi pH 7.0, 2 mM EDTA and 2.5 mM GSH-reduced form. […] The reaction is terminated by the addition of SnCl2 in 1N HCl (1 mg/ml final).

The subject of test [2] is human colon tumor cell line. The following applies: cited from earlier work.

As to `CC(C)(O)C#Cc1ccc2c(c1)c1cc(Cl)ccc1c1[nH]c(-c3c(F)cccc3C#N)nc21` [Example 14, 2-[9-chloro-6-(3-hydroxy-3-methylbutyl-1-yn-1-yl)-1H-phenanthro[9,10-d]imidazol-2-yl]-3-fluorobenzonitrile], the IC50 in test [1] came to 1.8 nM.

For the compound `N#Cc1cccc(C#N)c1-c1nc2c3ccc(Br)cc3c3cc(Cl)ccc3c2[nH]1` [Example 36, 2-(6-bromo-9-chloro-1H-phenanthro[9,10-d]imidazol-2-yl)isophthalonitrile], the IC50 in test [1] came out at 1.2 nM.

Take `CC(C)(O)c1ccc2c(c1)c1cc(Br)ccc1c1nc(-c3c(C#N)cccc3C#N)[nH]c21` [Example 87, 2-[6-bromo-9-(1-hydroxy-1-methylethyl)-1H-phenanthro[9,10-d]imidazol-2-yl]isophthalonitrile]: in test [1], the IC50 stood at 1.9 nM.

Consider `CC(C)(O)c1ccc2c(c1)c1cc(C#CC3CC3)ccc1c1nc(-c3c(C#N)cccc3C#N)[nH]c21` [Example 88, 2-[6-(cyclopropylethynyl)-9-(1-hydroxy-1-methylethyl)-1H-phenanthro[9,10-d]imidazol-2-yl]isophthalonitrile], for which the IC50 in test [1] stood at 1.3 nM.

Regarding `CC(C)c1ccc2c(c1)c(SC(C)(C)C)c(CC(C)(C)C(=O)O)n2Cc1ccc(Cl)cc1` [MK-886], in test [2], the PGE2 formation result is listed as “inhibits” and the cell proliferation result is listed as “inhibits”.

The record behind these values is patent publication US20090192158A1, “Methods for Treating or Preventing Neoplasias” (priority 2006, published 2009).
